According to patent publication US20230151037A1, “GPR40 AGONISTS” (Kallyope, Inc., priority 2020, published 2023):
pEC50: −log10 of the molar value.

Target: T1, human GPR40 (Homo sapiens, UniProt O14842)
T1 construct: host or cells: CHO-K1
Experiment: Inositol phosphate accumulation assay (IP1 HTRF) in CHO-K1 cells expressing human GPR40
Assay type: cell-based
Settings: 90 min
Experimental: CHO-K1 cells expressing human GPR40 were purchased from DiscoverX (95-1005C2). HEK293 cells expressing mouse FFAR1 were prepared using a mouse FFAR1 carrying plasmid purchased from OriGene Technologies (MR222997). The cells were transfected using Lipofectamine 2000 using manufacturer instructions and stable cell line was established from a single cell using geneticine selection. Assay ready frozen (ARF) cells were prepared and used throughout the study.
The assay was performed in a 384-well plate format using IP1 assay kit from Cis-Bio. ARF cells expressing FFAR1 (mouse and human) were thawed, washed and then plated in the appropriate medium (F12 based medium for CHO hFFAR1 and DMEM based medium for HEK293 mFFAR1-both were supplemented with 10% FBS and penicillin/streptomycin). 20 μL of 3.5×10^5 cells/mL were plated on a Poly D-Lysine coated 384-well white plate. The cells were then incubated for 16 hr at 37° C./5% CO2. After 16 hr the medium was removed and 15 μL of stimulation buffer containing the test compounds was added to the cells. The plates were then incubated for 90 min at 37° C./5% CO2. 5 μL of detection buffer (prepared as described in the IP-one kit) was added to each well and the plates were incubated at RT for 1 hr.
[…] was measured using ClarioSTAR plate reader, calculating the ratio between emissions at 665 nm and 620 nm (HTRF ratio). HTRF ratio for positive (Max) and negative (Min) controls were used to normalize HTRF data and generate values for % activity. EC50 and Max activity values were determined using a standard 4-parameter fit.

T1 sequence (O14842 whole entry): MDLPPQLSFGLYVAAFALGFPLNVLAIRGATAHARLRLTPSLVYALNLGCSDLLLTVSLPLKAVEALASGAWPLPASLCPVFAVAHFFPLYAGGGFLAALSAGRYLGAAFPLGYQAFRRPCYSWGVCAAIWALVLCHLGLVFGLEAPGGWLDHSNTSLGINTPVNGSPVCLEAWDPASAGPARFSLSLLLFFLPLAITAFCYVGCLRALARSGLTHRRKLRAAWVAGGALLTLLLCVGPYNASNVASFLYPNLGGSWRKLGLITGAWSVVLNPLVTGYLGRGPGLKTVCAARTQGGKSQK

Row | SMILES | pEC50
1 | COc1cc(-c2ccc(COc3cccc(C(CP(C)(=O)O)C4CC4)c3)cc2CN(C(C)C)C(C)C)c(F)cn1 (single isomer, unassigned) [Compound 10, (2-cyclopropyl-2-(3-((3-((diisopropylamino)methyl)-4-(5-fluoro-2-methoxypyridin-4-yl)benzyl)oxy)phenyl)ethyl)(methyl)phosphinic acid] | 6.60 to 7.30
2 | COc1cc(-c2ccc(COc3cccc(C(CP(C)(=O)O)C4CC4)c3)cc2CN(C(C)C)C(C)C)c(F)cn1 (single isomer, unassigned) [Compound 12, (2-cyclopropyl-2-(3-((3-((diisopropylamino)methyl)-4-(5-fluoro-2-methoxypyridin-4-yl)benzyl)oxy)phenyl)ethyl)(methyl)phosphinic acid] | < 6.00
3 | COc1cc(-c2ccc(COc3cccc(C(CS(=O)(=O)O)C4CC4)c3)cc2CN(C(C)C)C(C)C)c(F)cn1 (single isomer, unassigned) [Compound 14, 2-cyclopropyl-2-(3-((3-((diisopropylamino)methyl)-4-(5-fluoro-2-methoxypyridin-4-yl)benzyl)oxy)phenyl)ethanesulfonic acid] | < 6.00
4 | COc1cc(-c2ccc(COc3cccc(C(CS(=O)(=O)O)C4CC4)c3)cc2CN(C(C)C)C(C)C)c(F)cn1 (single isomer, unassigned) [Compound 15, 2-cyclopropyl-2-(3-((3-((diisopropylamino)methyl)-4-(5-fluoro-2-methoxypyridin-4-yl)benzyl)oxy)phenyl)ethanesulfonic acid] | < 6.00
5 | CCP(=O)(O)CC(c1cccc(OCc2ccc(-c3cc(OC)ncc3F)c(CN(C(C)C)C(C)C)c2)c1)C1CC1 (single isomer, unassigned) [Compound 17, (2-cyclopropyl-2-(3-((3-((diisopropylamino)methyl)-4-(5-fluoro-2-methoxypyridin-4-yl)benzyl)oxy)phenyl)ethyl)(ethyl)phosphinic acid] | < 6.00
6 | COc1cc(-c2ccc(COc3cccc(C(CS(=O)(=O)O)C4CC4)c3)cc2CN(C(C)C)C(C)C)c(F)cn1 (centres unmarked) [Compound 1, 2-cyclopropyl-2-(3-((3-((diisopropylamino)methyl)-4-(5-fluoro-2-methoxypyridin-4-yl)benzyl)oxy)phenyl)ethanesulfonic acid] | < 6.00
7 | COc1cc(-c2ccc(COc3cccc([C@H](C4CC4)[C@@](C)(F)C(=O)NS(C)(=O)=O)c3)cc2CN(C(C)C)C(C)C)c(F)cn1 [Compound 4, (2R,3S)-3-cyclopropyl-3-(3-((3-((diisopropylamino)methyl)-4-(5-fluoro-2-methoxypyridin-4-yl)benzyl)oxy)phenyl)-2-fluoro-2-methyl-N-(methylsulfonyl)propanamide] | ≥ 7.30
8 | COc1cc(-c2ccc(COc3cccc(C(CP(=O)(O)OC)C4CC4)c3)cc2CN(C(C)C)C(C)C)c(F)cn1 (centres unmarked) [Compound 5, methyl hydrogen (2-cyclopropyl-2-(3-((3-((diisopropylamino)methyl)-4-(5-fluoro-2-methoxypyridin-4-yl)benzyl)oxy)phenyl)ethyl)phosphonate] | < 6.00
9 | COc1cc(-c2ccc(COc3cccc(C(C4CC4)C(C)P(=O)(O)O)c3)cc2CN(C(C)C)C(C)C)c(F)cn1 (centres unmarked) [Compound 6, (1-cyclopropyl-1-(3-((3-((diisopropylamino)methyl)-4-(5-fluoro-2-methoxypyridin-4-yl)benzyl)oxy)phenyl)propan-2-yl)phosphonic acid] | < 6.00

Next, values leading:

Row | pEC50 | SMILES
10 | < 6.00 | CCP(=O)(O)CC(c1cccc(OCc2ccc(-c3cc(OC)ncc3F)c(CN(C(C)C)C(C)C)c2)c1)C1CC1 (single isomer, unassigned) [Compound 18, (2-cyclopropyl-2-(3-((3-((diisopropylamino)methyl)-4-(5-fluoro-2-methoxypyridin-4-yl)benzyl)oxy)phenyl)ethyl)(ethyl)phosphinic acid]
11 | < 6.00 | CCP(=O)(O)CC(c1cccc(OCc2ccc(-c3cc(OC)ncc3F)c(CN(C(C)C)C(C)C)c2)c1)C1CC1 (single isomer, unassigned) [Compound 19, (2-cyclopropyl-2-(3-((3-((diisopropylamino)methyl)-4-(5-fluoro-2-methoxypyridin-4-yl)benzyl)oxy)phenyl)ethyl)(ethyl)phosphinic acid]
12 | < 6.00 | CCP(=O)(O)CC(c1cccc(OCc2ccc(-c3cc(OC)ncc3F)c(CN(C(C)C)C(C)C)c2)c1)C1CC1 (single isomer, unassigned) [Compound 20, (2-cyclopropyl-2-(3-((3-((diisopropylamino)methyl)-4-(5-fluoro-2-methoxypyridin-4-yl)benzyl)oxy)phenyl)ethyl)(ethyl)phosphinic acid]
13 | ≥ 7.30 | COc1ccc(F)c(-c2ccc(COc3cccc(C(C)CP(C)(=O)O)c3)cc2[C@@H](OC)C(C)(C)C)c1 (single isomer, unassigned) [Compound 32]
14 | ≥ 7.30 | COc1ccc(F)c(-c2ccc(COc3cccc(C(C)CP(C)(=O)O)c3)cc2[C@@H](OC)C(C)(C)C)c1 (single isomer, unassigned) [Compound 33]
15 | 6.60 to 7.30 | COc1cc(-c2ccc(COc3cccc(C(C)CP(C)(=O)O)c3)cc2CN(C(C)C)C(C)C)c(F)cn1 (single isomer, unassigned) [Compound 35, (2-(3-((3-((diisopropylamino)methyl)-4-(5-fluoro-2-methoxypyridin-4-yl)benzyl)oxy)phenyl)propyl)(methyl)phosphinic acid]
16 | < 6.00 | COc1cc(-c2ccc(COc3cccc(C(C)CP(C)(=O)O)c3)cc2CN(C(C)C)C(C)C)c(F)cn1 (single isomer, unassigned) [Compound 36, (2-(3-((3-((diisopropylamino)methyl)-4-(5-fluoro-2-methoxypyridin-4-yl)benzyl)oxy)phenyl)propyl)(methyl)phosphinic acid]
17 | ≥ 7.30 | COc1cc(-c2ccc(COc3cc(C(C)CP(C)(=O)O)ccn3)cc2[C@@H](OC)C(C)(C)C)c(F)cn1 (single isomer, unassigned) [Compound 37]
18 | ≥ 7.30 | COc1cc(-c2ccc(COc3cc(C(C)CP(C)(=O)O)ccn3)cc2[C@@H](OC)C(C)(C)C)c(F)cn1 (single isomer, unassigned) [Compound 38]
19 | < 6.00 | COc1cc(-c2ccc(COc3cc(C(C)CP(C)(=O)O)ccn3)cc2CN(C(C)C)C(C)C)c(F)cn1 (single isomer, unassigned) [Compound 39, ((R)-2-(2-((3-((diisopropylamino)methyl)-4-(5-fluoro-2-methoxypyridin-4-yl)benzyl)oxy)pyridin-4-yl)propyl)(methyl)phosphinic acid or ((S)-2-(2-((3-((diisopropylamino)methyl)-4-(5-fluoro-2-methoxypyridin-4-yl)benzyl)oxy)pyridin-4-yl)propyl)(methyl)phosphinic acid]
20 | ≥ 7.30 | COc1ccc(F)c(-c2ccc(COc3cc(C(C)CP(C)(=O)O)ccn3)cc2[C@@H](OC)C(C)(C)C)c1 (single isomer, unassigned) [Compound 40, ((R)-2-(2-((2′-fluoro-5′-methoxy-2-((S)-1-methoxy-2,2-dimethylpropyl)-[1,1′-biphenyl]-4-yl)methoxy)pyridin-4-yl)propyl)(methyl)phosphinic acid or ((S)-2-(2-((2′-fluoro-5′-methoxy-2-((S)-1-methoxy-2,2-dimethylpropyl)-[1,1′-biphenyl]-4-yl)methoxy)pyridin-4-yl)propyl)(methyl)phosphinic acid]
